These results are taken from patent US9499493B2, “2,4-pyrimidinediamine compounds and their uses” (Rigel Pharmaceuticals, Inc., priority 2002, dated 2016).

Structures can show the parent of a compound that is named as a salt.

Test [1] relates to cultured human mast cells (CHMC). As to the kind of experiment: CHMC low cell density IgE activation: tryptase assay. Type of test: cell-based. As to conditions: anti-IgE. The procedure, abridged:
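Cultured human mast cells (1000-1500 cells/well, donor-dependent) equilibrated 1 hr at 37° C, then stimulated with anti-IgE for 30 min at 37° C. Tryptase released into the supernatant is measured with a fluorogenic tryptase substrate after 30 min at room temperature.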

Test [2] shares this test system. As to the kind of experiment: CHMC low cell density ionomycin activation: tryptase assay. Type of test: cell-based.

Take `CNC(=O)COc1cccc(Nc2ncc(F)c(Nc3cccc(OC)c3)n2)c1` [R926738, 5-Fluoro-N4-(3-methoxyphenyl)-N2-[3-(N-methylamino)carbonylmethyleneoxyphenyl]-2,4-pyrimidinediamine]: the IC50 was 342 nM in test [1] and over 10000 nM in test [2].

`COc1cccc(Nc2nc(Nc3cccc(OCC(=O)NCC(O)CO)c3)ncc2F)c1` (stereo not drawn) [R926739, N2-[3-(N-2,3-Dihydroxypropylamino)carbonylmethyleneoxyphenyl]-5-fluoro-N4-(3-methoxyphenyl)-2,4-pyrimidinediamine]: the IC50 was 508 nM in test [1] and over 10000 nM in test [2].

For `CCOC(=O)COc1ccc(Nc2ncc(F)c(Nc3ccc4c(c3)OCCO4)n2)cn1` [R926740, N2-[2-(Ethoxycarbonylmethyleneoxy)pyridin-5-yl]-N4-(3,4-ethylenedioxyphenyl)-5-fluoro-2,4-pyrimidinediamine], the IC50 is 4420 nM in test [1] and over 10000 nM in test [2].

With `O=C(COc1cccc(Nc2ncc(F)c(Nc3cccc(O)c3)n2)c1)NCC(O)CO` (stereo not drawn) [R926746, 5-Fluoro-N4-(3-hydroxyphenyl)-N2-[3-(N-2,3-dihydroxypropylamino)carbonylmethyleneoxyphenyl]-2,4-pyrimidinediamine], the IC50 in test [1] was 989 nM; in test [2], over 10000 nM.

`NC(=O)COc1cccc(Nc2ncc(F)c(Nc3ccc4c(c3)OCCO4)n2)c1` [R926747, N2-(3-Aminocarbonylmethyleneoxyphenyl)-N4-(3,4-ethylenedioxyphenyl)-5-fluoro-2,4-pyrimidinediamine]: the results for the IC50 in test [1] and in test [2] were 213 nM and over 10000 nM, respectively.

For the compound `CNC(=O)COc1cc(Nc2ncc(F)c(Nc3ccc4cc[nH]c4c3)n2)ccc1OC` [R926752, 5-Fluoro-N4-[(1H)-indol-6-yl]-N2-[4-methoxy-3-[(N-methylamino)carbonylmethyleneoxy]phenyl]-2,4-pyrimidinediamine], the IC50 in test [1] is 338 nM; in test [2], over 10000 nM.

`CNC(=O)COc1cccc(Nc2ncc(F)c(Nc3cccc(B(O)O)c3)n2)c1` [R926754, 5-Fluoro-N4-(3-dihydroxyborylphenyl)-N2-[3-[(N-methylamino)carbonylmethyleneoxy]phenyl]-2,4-pyrimidinediamine]: the IC50 in test [1] is 388 nM; in test [2], over 10000 nM.

On to `CNC(=O)COc1cc(Nc2ncc(F)c(Nc3ccc(C)c(O)c3)n2)ccc1C` [R926759, 5-Fluoro-N4-(3-hydroxy-4-methylphenyl)-N2-[4-methyl-3-[(N-methylamino)carbonylmethyleneoxy]phenyl]-2,4-pyrimidinediamine], for which the IC50 is 688 nM in test [1] and over 10000 nM in test [2].

`CNC(=O)COc1cc(Nc2ncc(F)c(Nc3ccc(C)c(OCC(=O)NC)c3)n2)ccc1C` [R926760, 5-Fluoro-N2,N4-bis[4-methyl-3-[(N-methylamino)carbonylmethyleneoxy]phenyl]-2,4-pyrimidinediamine]: the figures for the IC50 in test [1] and in test [2] were 2890 nM and over 10000 nM, respectively.

For the compound `CC(C)(CO)NC(=O)COc1cccc(Nc2ncc(F)c(Nc3ccc4c(c3)OCCO4)n2)c1` [R926764, N4-(3,4-Ethylenedioxyphenyl)-5-fluoro-N2-[3-(N-2-hydroxy-1,1-dimethylethylamino)carboxymethyleneoxyphenyl]-2,4-pyrimidinediamine], the IC50 in test [1] was determined as 252 nM; in test [2], 5640 nM.

Consider `O=C(COc1cccc(Nc2ncc(F)c(Nc3ccc4c(c3)OCCO4)n2)c1)NC1CCCCC1` [R926765, N2-[3-(N-Cyclohexylamino)carbonylmethyleneoxyphenyl]-N4-(3,4-ethylenedioxyphenyl)-5-fluoro-2,4-pyrimidinediamine], for which the results for the IC50 in test [1] and in test [2] were 324 nM and 4390 nM, respectively.

Consider `CN(CCO)C(=O)COc1cccc(Nc2ncc(F)c(Nc3ccc4c(c3)OCCO4)n2)c1` [R926766, N4-(3,4-Ethylenedioxyphenyl)-5-fluoro-N2-[3-[N-methyl-N-(2-hydroxyethyl)amino]carbonylmethyleneoxyphenyl]-2,4-pyrimidinediamine], for which the IC50 was 756 nM in test [1] and over 10000 nM in test [2].

Consider `Oc1cccc(Nc2nc(Nc3ccc4oc(CN5CCNCC5)cc4c3)ncc2F)c1` [R926769, 5-Fluoro-N4-(3-hydroxyphenyl)-N2-[2-(N-piperazinomethylene)benzofuran-5-yl]-2,4-pyrimidinediamine Dihydrochloride Salt], for which the results for the IC50 in test [1] (Dihydrochloride Salt) and in test [2] were 1070 nM and over 10000 nM, respectively.

As to `CCOC(=O)COc1cccc(Nc2nc(Nc3ccc4c(c3)OCCO4)ncc2F)c1` [R926774, N4-(3-Ethoxycarbonylmethyleneoxyphenyl)-N2-(3,4-ethylenedioxyphenyl)-5-fluoro-2,4-pyrimidinediamine], the concentration for half-maximal inhibition (IC50) in test [1] came out at 1930 nM; in test [2], 7940 nM.

As to `CCOC(=O)COc1cccc(Nc2nc(Nc3cccc(O)c3)ncc2F)c1` [R926775, N4-(3-Ethoxycarbonylmethyleneoxyphenyl)-5-fluoro-N2-(3-hydroxyphenyl)-2,4-pyrimidinediamine], the IC50 was 3470 nM in test [1] and over 10000 nM in test [2].

As to `CNC(=O)COc1cccc(Nc2nc(Nc3ccc4c(c3)OCCO4)ncc2F)c1` [R926776, N2-(3,4-Ethylenedioxyphenyl)-5-fluoro-N4-[3-(N-methylamino)carbonylmethyeleneoxyphenyl]-2,4-pyrimidinediamine], the results for the IC50 in test [1] and in test [2] were 810 nM and over 10000 nM, respectively.

`O=C(COc1cccc(Nc2ncc(F)c(Nc3ccc4c(c3)OCCO4)n2)c1)N(CCO)CCO` [R926781, N2-[3-[N,N-Bis-(2-hydroxyethylamino)]carbonylmethyleneoxyphenyl]-N4-(3,4-ethylenedioxyphenyl)-5-fluoro-2,4-pyrimidinediamine]: the IC50 in test [1] was 573 nM; in test [2] it was over 10000 nM.

Take `O=C(COc1cccc(Nc2ncc(F)c(Nc3ccc4c(c3)OCCO4)n2)c1)NC(CO)CO` [R926784, N2-[3-(N-1,3-Dihydroxy-2-propylamino)carbonylmethyleneoxyphenyl]-N4-(3,4-ethylenedioxyphenyl)-5-fluoro-2,4-pyrimidinediamine]: the results for the IC50 in test [1] and in test [2] were 252 nM and over 10000 nM, respectively.

As to `O=C1OCc2ccc(Nc3ncc(F)c(Nc4ccc5c(c4)OCCO5)n3)cc21` [R926786, N2-(1,1-Dihydroisobenzofuran-1-one-6-yl)-N4-(3,4-ethylenedioxyphenyl)-5-fluoro-2,4-pyrimidinediamine], the IC50 is 504 nM in test [1] and over 10000 nM in test [2].

In the case of `Oc1cccc(Nc2ncc(F)c(Nc3ccc4c(c3)OC(F)(F)O4)n2)c1` [R926794, N4-(3,4-Difluoromethylenedioxyphenyl)-5-fluoro-N2-(3-hydroxyphenyl)-2,4-pyrimidinediamine], the IC50 in test [1] was 1380 nM; in test [2], over 10000 nM.

On to `CCOC(=O)COc1cccc(Nc2ncc(F)c(Nc3cc(OC)cc(OC)c3)n2)c1` [R926795, N4-(3,5-Dimethoxyphenyl)-N2-(3-ethoxycarbonylmethyleneoxyphenyl)-5-fluoro-2,4-pyrimidinediamine], for which the IC50 in test [1] was 2040 nM; in test [2] it was over 10000 nM.

As to `CNC(=O)COc1cccc(Nc2ncc(F)c(Nc3cc(OC)cc(OC)c3)n2)c1` [R926796, N4-(3,5-Dimethoxyphenyl)-5-fluoro-N2-[3-(N-methylamino)carbonylmethyleneoxyphenyl]-2,4-pyrimidinediamine], the IC50 in test [1] is 914 nM; in test [2] it was over 10000 nM.

With `CCOC(=O)COc1cccc(Nc2ncc(C(=O)OCC)c(Nc3ccc4c(c3)OCCO4)n2)c1` [R926797, N4-(3,4-Ethylenedioxyphenyl)-N2-(3-ethoxycarbonylmethyleneoxyphenyl)-5-ethoxycarbonyl-2,4-pyrimidinediamine], the IC50 was 2240 nM in test [1] and over 10000 nM in test [2].

Regarding `CCOC(=O)COc1cccc(Nc2ncc(C(=O)OCC)c(Nc3cccc(O)c3)n2)c1` [R926798, N4-(3-Hydroxyphenyl)-N2-(3-ethoxycarbonylmethyleneoxyphenyl)-5-ethoxycarbonyl-2,4-pyrimidinediamine], the IC50 in test [1] amounted to 2350 nM; in test [2], 5870 nM.

`CCOC(=O)COc1cccc(Nc2ncc(C(=O)OCC)c(Nc3ccc4c(c3)OC(F)(F)C(F)(F)O4)n2)c1` [R926799, N2-(3-Ethoxycarbonylmethyleneoxyphenyl)-5-ethoxycarbonyl-N4-(3,4-tetrafluoroethylenedioxyphenyl)-2,4-pyrimidinediamine]: the IC50 in test [1] and in test [2] was over 10000 nM each time.

Regarding `CCOC(=O)c1cnc(Nc2cccc(OCC(=O)NC)c2)nc1Nc1ccc2c(c1)OCCO2` [R926800, 5-Ethoxycarbonyl-N4-(3,4-ethylenedioxyphenyl)-N2-[3-(N-methylamino)carbonylmethyleneoxyphenyl]-2,4-pyrimidinediamine], the values for the IC50 in test [1] and in test [2] were 4580 nM and over 10000 nM, respectively.

In the case of `CCOC(=O)c1cnc(Nc2cccc(OCC(=O)NC)c2)nc1Nc1cc(OC)cc(OC)c1` [R926801, N4-(3,5-Dimethoxyphenyl)-5-ethoxycarbonyl-N2-[3-(N-methylamino)carbonylmethyleneoxyphenyl]-2,4-pyrimidinediamine], the IC50 in test [1] was 10000 nM; in test [2], over 10000 nM.

As for `CCOC(=O)COc1cccc(Nc2nc(Nc3cc(OC)cc(OC)c3)ncc2F)c1` [R926804, N2-(3,5-Dimethoxyphenyl)-N4-(3-ethoxycarbonylmethyleneoxyphenyl)-5-fluoro-2,4-pyrimidinediamine], the IC50 in test [1] worked out at 1580 nM; in test [2], 7110 nM.

As for `Fc1cnc(Nc2cccc(C(F)(F)F)c2)nc1Nc1ccc2c(c1)OCCO2` [R926805], the results for the half-maximal inhibitory concentration (IC50) in test [1] and in test [2] were 764 nM and over 10000 nM, respectively.

`CCOC(=O)COc1cccc(Nc2ncc(F)c(Nc3ccc(-n4cnc(Cl)c4Cl)cc3)n2)c1` [R926809, N4-[4-(4,5-Dichloro-1H-imidazol-1-yl)phenyl]-5-fluoro-N2-(3-ethoxycarbonylmethyleneoxyphenyl)-2,4-pyrimidinediamine]: the values for the IC50 in test [1] and in test [2] were 780 nM and 3050 nM, respectively.

As a reminder, the IC50 is the midpoint of a concentration-inhibition curve.
